This is an account of results in US7973147B2, “K04-0144 substance and a process for production thereof” (The Kitasato Institute, priority 2006, dated 2011).

For data set [1], the system named is MRSA (Clinical isolate, the Kitasato Hospital, Japan). The data set is described as follows: Enhancing action of K04-0144D substance on antibiotic activities, broth microdilution method. The data set is classed as cell-based, methicillin-resistant Staphylococcus aureus. The following applies: for MIC: Staphylococcus aureus, MRSA.
The next data set concerns MRSA 70. The experiment in a line: MIC, agar plate dilution method. The class given is cell-based, methicillin-resistant Staphylococcus aureus. The following applies: Staphylococcus aureus, MRSA, 20 h. How it is done:
(§1) Assay of minimum inhibitory concentration (MIC) was performed according to the agar plate dilution method (Method of Japan Society of Chemotherapy, CHEMOTHERAPY 29, 76-79, 1981).
(§2) Test organisms used were 27 types of microorganisms including clinical isolates of methicillin-resistant Staphylococcus aureus. Each test organism was cultured in Mueller-Hinton broth (2.1% w/v) (DIFCO) at 37° C. for 20 hours, and the cultured cells were suspended to about 10^6 cell counts/ml in the same medium, then was used as the microbial suspension for inoculation. The prepared microbial suspension was smeared by using the microplanter on MHA medium (Mueller-Hinton broth 2.1% (w/v) and agar 1.5%) containing K04-0144A substance, K04-0144B substance or K04-0144C substance, each of which was subjected to two-fold stepwise dilution from 128 μg/ml. After culturing at 37° C. for 20 hours, MIC was determined by macroscopically confirming the growth of microorganisms. Vancomycin, arbekacin and linezolid were used as a comparative control.

In the next data set the test system is MRSA 92-1191. The experiment in a line: MIC, agar plate dilution method. The data set is classed as cell-based, methicillin-resistant Staphylococcus aureus. The following applies: Staphylococcus aureus; MRSA 92-1191; 37° C., 20 hours; read-out: MIC. On the procedure:
as §1, §2

Another data set has as its system MRSA N315 IR94 HR-1. The data set is described as follows: MIC, agar plate dilution method. The class given is cell-based, methicillin-resistant Staphylococcus aureus. The following applies: Staphylococcus aureus, 20 h. How it is done: as §1, §2
The test system of another data set is MRSA N315 IR94. The data set is described as follows: MIC, agar plate dilution method. The data set is classed as cell-based, methicillin-resistant Staphylococcus aureus. The following applies: Staphylococcus aureus, 20 h. On the procedure: as §1, §2
In a further data set the test system is A. calcoaceticus IFO2552. The data set is described as follows: MIC, agar plate dilution method. The class given is cell-based. The following applies: Acinetobacter calcoaceticus; A. calcoaceticus IFO2552; 37° C., 20 hours; read-out: MIC. On the procedure: as §1, §2
Another data set concerns C. freundii ATCC8090. The data set is described as follows: MIC, agar plate dilution method. The class given is cell-based. The following applies: Citrobacter freundii; C. freundii ATCC8090; 37° C., 20 hours; read-out: MIC. How it is done: as §1, §2
The subject of the next data set is E. aerogenes NCTC10006. The experiment in a line: MIC, agar plate dilution method. The data set is classed as cell-based. The following applies: Klebsiella aerogenes; E. aerogenes NCTC10006; 37° C., 20 hours; read-out: MIC. On the procedure: as §1, §2
The test system of a further data set is E. cloacae IFO13535. The experiment in a line: MIC, agar plate dilution method. The following applies: Enterobacter cloacae; E. cloacae IFO13535; 37° C., 20 hours; read-out: MIC. The data set is classed as cell-based. How it is done: as §1, §2
In the next data set the test system is E. coli NIHJ JC-2. The experiment in a line: MIC, agar plate dilution method. The following applies: Escherichia coli, NIHJJC2; E. coli NIHJ JC-2; 37° C., 20 hours; read-out: MIC. The class given is cell-based. How it is done:
as §1, §2

Data set [2] concerns E. facecalis NTCT12201(VanA). The experiment in a line: MIC, agar plate dilution method. The data set is classed as cell-based. The following applies: E. facecalis NTCT12201(VanA); 37° C., 20 hours; read-out: MIC. How it is done:
as §1, §2

The subject of the next data set is E. faecalis ATCC21212. The experiment in a line: MIC, agar plate dilution method. The following applies: Enterococcus faecalis; E. faecalis ATCC21212; 37° C., 20 hours; read-out: MIC. The class given is cell-based. On the procedure:
as §1, §2

Data set [3] has as its system E. faecium NTCT12203(VanA). The data set is described as follows: MIC, agar plate dilution method. The class given is cell-based. The following applies: Enterococcus faecium; E. faecium NTCT12203(VanA); 37° C., 20 hours; read-out: MIC. How it is done:
as §1, §2

Another data set has as its system K. pneumoniae NCTN9632. The data set is described as follows: MIC, agar plate dilution method. The class given is cell-based. The following applies: Klebsiella pneumoniae; K. pneumoniae NCTN9632; 37° C., 20 hours; read-out: MIC. How it is done:
as §1, §2

The test system of a further data set is M. luteus ATCC9341. The data set is described as follows: MIC, agar plate dilution method. The class given is cell-based. The following applies: Micrococcus luteus; M. luteus ATCC9341; 37° C., 20 hours; read-out: MIC. How it is done: as §1, §2
A further data set has as its system M. morganii IID Kono. The data set is described as follows: MIC, agar plate dilution method. The class given is cell-based. The following applies: Morganella morganii; M. morganii IID Kono; 37° C., 20 hours; read-out: MIC. On the procedure: as §1, §2
The subject of the next data set is P. aeruginosa 46001. The data set is described as follows: MIC, agar plate dilution method. The data set is classed as cell-based. The following applies: Pseudomonas aeruginosa; P. aeruginosa 46001; 37° C., 20 hours; read-out: MIC. On the procedure: as §1, §2
Another data set concerns P. aeruginosa E-2. The data set is described as follows: MIC, agar plate dilution method. The following applies: Pseudomonas aeruginosa, E2; P. aeruginosa E-2; 37° C., 20 hours; read-out: MIC. The class given is cell-based. On the procedure:
as §1, §2

The test system of the next data set is P. mirabilis IFO3849. The experiment in a line: MIC, agar plate dilution method. The class given is cell-based. The following applies: Proteus mirabilis; P. mirabilis IFO3849; 37° C., 20 hours; read-out: MIC. How it is done: as §1, §2
The subject of another data set is P. vulgaris OX-19. The data set is described as follows: MIC, agar plate dilution method. The data set is classed as cell-based. The following applies: Proteus vulgaris, OX19; P. vulgaris OX-19; 37° C., 20 hours; read-out: MIC. How it is done:
as §1, §2

For another data set, the system named is S. aureus 8325(pEP2104). The experiment in a line: MIC, agar plate dilution method. The class given is cell-based. The following applies: Staphylococcus aureus, 20 h. How it is done:
as §1, §2

In another data set the test system is S. aureus 8325(pMS97). The data set is described as follows: MIC, agar plate dilution method. The data set is classed as cell-based. The following applies: Staphylococcus aureus, 20 h. On the procedure: as §1, §2
In the next data set the test system is S. aureus FDA209P. The experiment in a line: MIC, agar plate dilution method. The class given is cell-based. The following applies: Staphylococcus aureus; S. aureus FDA209P; 37° C., 20 hours; read-out: MIC. On the procedure:
as §1, §2

A further data set concerns S. aureus ISP217. The data set is described as follows: MIC, agar plate dilution method. The class given is cell-based. The following applies: Staphylococcus aureus; S. aureus ISP217; 37° C., 20 hours; read-out: MIC. How it is done:
as §1, §2

For another data set, the system named is S. aureus ISP447. The experiment in a line: MIC, agar plate dilution method. The class given is cell-based. The following applies: Staphylococcus aureus; S. aureus ISP447; 37° C., 20 hours; read-out: MIC. How it is done: as §1, §2
A further data set deals with S. aureus Smith. The data set is described as follows: MIC, agar plate dilution method. The data set is classed as cell-based. The following applies: Staphylococcus aureus; S. aureus Smith; 37° C., 20 hours; read-out: MIC. How it is done:
as §1, §2

Another data set deals with S. epidermidis IFO12648. The data set is described as follows: MIC, agar plate dilution method. The data set is classed as cell-based. The following applies: Staphylococcus epidermidis; S. epidermidis IFO12648; 37° C., 20 hours; read-out: MIC. On the procedure:
as §1, §2

The subject of the next data set is S. marcescens IFO12648. The experiment in a line: MIC, agar plate dilution method. The data set is classed as cell-based. The following applies: Serratia marcescens; S. marcescens IFO12648; 37° C., 20 hours; read-out: MIC. How it is done:
as §1, §2

The nature of another data set: Solubility in solvent. The data set is classed as physicochemical.
Data set [4] relates to methicillin-resistant Staphylococcus aureus (MRSA) K24 strain. The experiment in a line: Enhancing action on activity of imipenem by paper disc method. The data set is classed as cell-based. How it is done:
Clinical isolate of methicillin-resistant Staphylococcus aureus (MRSA) K24 strain was used as a test microorganism. After the strain of MRSA K24 was cultured in Mueller-Hinton broth (2.1% w/v) (DIFCO) at 37° C. for 20 hours, the strain was suspended to the concentration corresponding to 0.5 Mc FARAND (about 10^8 CFU/ml) in the same medium. The suspension was smeared on MHA medium (Mueller-Hinton broth 2.1% (w/v), agar 1.5%) and a medium of the same composition containing imipenem (Tienem for Intramuscular Injection, 0.5 g, Banyu Pharmaceutical Co., Ltd., Japan) with a concentration without affecting the growth of test microorganisms, i.e. final concentration of 10 μg/ml. Smearing was performed according to the method of National Committee for Laboratory Standard, the U.S. (NCCLS), by using sterilized cotton-tipped swab (Kawamoto Sangyo Co., Ltd., Japan).

Values after ≈ are worked out from the molar mass of the structure shown. “Also recorded” adds a separate entry of the source. Read-outs that look alike come from different tables or passages of the source. Some results are limits rather than exact numbers.

For the compound `C[C@@H](O)[C@H]1C(=O)N2C(C(=O)O)=C(SCCN=CN)C[C@H]12` [Imipenem, imipenem], in [1] (MIC alone / MIC with K04-0144D substance 16 μg/ml), the “Ratio (−/+K04-0144D)” value stood at 1024. For the same compound, the MIC in data set [1] (antibiotic alone, without K04-0144D substance, read-out: Minimum Inhibitory Concentration (−)) stood at 32 mg/L; in [1] (combined use with K04-0144D substance 16 μg/ml, read-out: Minimum Inhibitory Concentration (+)), 0.03 mg/L.

Take `C=C(C/C=C(\C)CCC=C(C)C)CCC(C)(C)/C=C/CC/C(C)=C\COC(COP(=O)(O)OC1OC(C(N)=O)C(C)(O)C(OC(N)=O)C1OC1OC(CO)C(OC2OC(C)C(OC3OC(C(=O)O)C(O)C(O)C3O)C(O)C2NC(C)=O)C(O)C1NC(C)=O)C(=O)O` (stereo not drawn) [K04-0144B]: the MIC was 0.125 mg/L (≈ 0.0943 µM) against MRSA 70; 1 mg/L (≈ 0.755 µM) in the data set on MRSA 92-1191; 0.125 mg/L (≈ 0.0943 µM) with MRSA N315 IR94 HR-1; 0.125 mg/L (≈ 0.0943 µM) against MRSA N315 IR94; 8 mg/L (≈ 6.04 µM) with A. calcoaceticus IFO2552; over 16 mg/L in the data set on C. freundii ATCC8090. In addition, the MIC with E. aerogenes NCTC10006 is over 16 mg/L; in the data set with E. cloacae IFO13535, over 16 mg/L; in the data set with E. coli NIHJ JC-2, over 16 mg/L; in data set [2], 2 mg/L (≈ 1.51 µM); in the data set on E. faecalis ATCC21212, 2 mg/L (≈ 1.51 µM); in data set [3] it was over 16 mg/L. In addition, the MIC with K. pneumoniae NCTN9632 was over 16 mg/L; in the data set on M. luteus ATCC9341, over 16 mg/L; in the data set with M. morganii IID Kono, over 16 mg/L; in the data set with P. aeruginosa 46001 it was over 16 mg/L; with P. aeruginosa E-2 it was over 16 mg/L; in the data set on P. mirabilis IFO3849, 16 mg/L (≈ 12.1 µM). Besides, the MIC in the data set on P. vulgaris OX-19 amounted to 4 mg/L (≈ 3.02 µM); against S. aureus 8325(pEP2104), 0.06 mg/L (≈ 0.0453 µM); against S. aureus 8325(pMS97) it was 1 mg/L (≈ 0.755 µM); in the data set on S. aureus FDA209P, 2 mg/L (≈ 1.51 µM); in the data set on S. aureus ISP217, 0.5 mg/L (≈ 0.377 µM); in the data set on S. aureus ISP447 it was 0.5 mg/L (≈ 0.377 µM). Further, the figures for the MIC with S. aureus Smith, in the data set on S. epidermidis IFO12648 and in the data set on S. marcescens IFO12648 were 2 mg/L (≈ 1.51 µM), 8 mg/L (≈ 6.04 µM) and over 16 mg/L, respectively. Moreover, the Solubility in solvent entry in “Solubility in solvent” (listed as K04-0144B Substance) was “Soluble in water, methanol and dimethyl sulfoxide; also recorded: Insoluble in acetone, chloroform and n-hexane”.

As for `C=C/C(C)=C/CC1C2(C)CCCC(C)(C)C2CC(O)C1(O)CSCC(NC(C)=O)C(=O)O` (stereo not drawn) [K04-0144D substance], the “Diameter of inhibition ring” value is recorded as 15 mm in data set [4] (1 μg/6 mm disc, Imipenem (10 μg/ml) (+)); “did not exhibit an inhibitory ring” in data set [4] (1 μg/6 mm disc, Imipenem (10 μg/ml) (−)); 26 mm in data set [4] (10 μg/6 mm disc, Imipenem (10 μg/ml) (+)); 14 mm in data set [4] (10 μg/6 mm disc, Imipenem (10 μg/ml) (−)). Further, the Solubility in solvent result in the data set “Solubility in solvent” was “Soluble in methanol and water acetonitrile; also recorded: Insoluble in chloroform and hexane ethyl acetate”.
